What all share (test): inhibition of tumour cell growth, NCI panel, 48 h
Experiment [1] deals with MOLT-4.
The subject of experiment [2] is HCT-15.
The subject of experiment [3] is ACHN.
Experiment [4] relates to HOP-62.
The test system of experiment [5] is SN12C.
The subject of experiment [6] is HL-60.
Experiment [7] relates to MDA-MB-435.
For experiment [8], the system named is SK-OV-3.
Experiment [9] has as its system HT-29.
The subject of experiment [10] is SNB-75.
The subject of experiment [11] is K562.
Experiment [12] deals with RXF 393.
The test system of experiment [13] is OVCAR-4.
Experiment [14] relates to SF-295.
Experiment [15] relates to A498.
The subject of experiment [16] is NCI-H522.
The test system of experiment [17] is LOX IMVI.
The test system of experiment [18] is IGROV-1.
For experiment [19], the system named is SNB-19.
For experiment [20], the system named is HCC 2998.

The structures appear in SMILES notation.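 In this assay, cells in 96-well plates receive the compound at five concentrations for 48 hours. Endpoints are linearly interpolated between the surrounding concentrations. GI50 = concentration required for 50% inhibition of growth.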 Calls of active or inactive are those of the source. Rule as the data show it: active = GI50 up to about 1.1 µM and inactive = higher. Some results are limits rather than exact numbers.

`Cn1c(=O)c2c(nc(C(=N)SCC(=O)O)n2C)n(C)c1=O`: the GI50 in experiment [1] is 22.2 µM (inactive); in [2], 31.8 µM; in experiment [3], 41 µM (inactive); in experiment [4], 56.5 µM (inactive); in experiment [5], 45.9 µM (inactive); in [6] it was 27.7 µM (inactive). For the same compound, the GI50 in experiment [7] is 29.2 µM (inactive); in experiment [8], 61.8 µM (inactive); in experiment [9], 48.2 µM (inactive); in experiment [10], 41.2 µM (inactive); in experiment [11], 27 µM (inactive); in experiment [12], 53.1 µM (inactive). The GI50 is 24.4 µM (inactive) in [13]; 52.7 µM (inactive) in experiment [14]; 26.9 µM (inactive) in experiment [15]; 41.9 µM (inactive) in experiment [16]; 48.1 µM (inactive) in experiment [17]; 47 µM (inactive) in [18]. The GI50 in experiment [19] was 52.7 µM (inactive).

Regarding `Nc1nc(N)nc(CCCc2nc(N)nc(N)n2)n1`, the GI50 in experiment [1] was > 100 µM (inactive); in [2], greater than 100 µM; in experiment [3], > 100 µM (inactive); in experiment [4] it was > 100 µM (inactive); in experiment [5], > 100 µM (inactive); in [6], > 100 µM (inactive). For the same compound, the GI50 in [7], in experiment [8], in experiment [9], in [10], in experiment [11] and in experiment [12] was > 100 µM (inactive) throughout. The GI50 in experiment [13], in [14], in experiment [15], in experiment [16], in experiment [17] and in experiment [18] was > 100 µM (inactive) each time. Moreover, in [19], the GI50 was > 100 µM (inactive).

`C#CCOC(=O)C(=[N+]=[N-])C(=O)CC(C)C`: the GI50 is > 10 µM (inactive) in experiment [1]; greater than 10 µM in experiment [2]; > 10 µM (inactive) in experiment [3]; > 10 µM (inactive) in experiment [4]; > 10 µM (inactive) in experiment [5]; > 10 µM (inactive) in experiment [6]. Moreover, the GI50 in experiment [7], in experiment [8], in experiment [9], in experiment [20], in experiment [11] and in experiment [12] was > 10 µM (inactive) each time. Further, the GI50 in experiment [13], in experiment [14], in experiment [15], in experiment [17], in experiment [18] and in experiment [19] was > 10 µM (inactive) each time.

As to `CC(=O)OC1COC(n2c(N)c(C#N)c(C)c(C#N)c2=S)C(OC(C)=O)C1OC(C)=O` (stereo not given), the GI50 in [2] is greater than 100 µM; in experiment [3], 59.6 µM (inactive); in experiment [4], > 100 µM (inactive); in experiment [5] it was > 100 µM (inactive); in [7], > 100 µM (inactive); in experiment [8] it was > 100 µM (inactive). Moreover, the GI50 is > 100 µM (inactive) in [9]; > 100 µM (inactive) in [10]; 75.3 µM (inactive) in experiment [20]; 58.9 µM (inactive) in experiment [11]; > 100 µM (inactive) in experiment [14]; > 100 µM (inactive) in experiment [15]. Also, the GI50 in [16], in experiment [17] and in experiment [18] was > 100 µM (inactive) each time.

With `CCOc1ccc(NC(=O)C(=O)C2C(=O)Nc3ccccc3[S+]2[O-])cc1` (stereo not given), the GI50 was greater than 100 µM in experiment [2]; > 100 µM (inactive) in [3]; > 100 µM (inactive) in experiment [4]; > 100 µM (inactive) in experiment [5]; > 100 µM (inactive) in experiment [6]; > 100 µM (inactive) in [7]. Further, the GI50 was > 100 µM (inactive) in experiment [8]; > 100 µM (inactive) in experiment [9]; 95.1 µM (inactive) in experiment [10]; > 100 µM (inactive) in experiment [12]; 89.7 µM (inactive) in experiment [13]; > 100 µM (inactive) in experiment [14]. For the same compound, the GI50 in [15] is > 100 µM (inactive); in experiment [16], > 100 µM (inactive); in experiment [17], > 100 µM (inactive); in experiment [18], 55.6 µM (inactive).

`CN(C)c1ccc2c3c(c(=O)oc2c1)CCC3`: the GI50 in experiment [1] is 27.2 µM (inactive); in [2], 50.7 µM; in experiment [3] it was 58.5 µM (inactive); in [4], 44 µM (inactive); in experiment [5], > 100 µM (inactive); in experiment [6] it was 26.9 µM (inactive). The GI50 is 57.9 µM (inactive) in experiment [7]; 44.8 µM (inactive) in experiment [9]; 54.7 µM (inactive) in experiment [20]; 69.3 µM (inactive) in [11]; 64 µM (inactive) in [12]; > 100 µM (inactive) in [13]. Also, the GI50 is 92.7 µM (inactive) in experiment [14]; 29.4 µM (inactive) in [15]; 26.7 µM (inactive) in experiment [16]; 40.6 µM (inactive) in [17]; 84.1 µM (inactive) in [18]; > 100 µM (inactive) in [19].

Turning to `Cc1ccc2c(=O)c(C(=O)Nn3c(C)csc3=S)c[nH]c2n1`, the GI50 was > 100 µM (inactive) in experiment [1]; greater than 100 µM in [2]; > 100 µM (inactive) in experiment [3]; > 100 µM (inactive) in experiment [4]; > 100 µM (inactive) in experiment [5]; > 100 µM (inactive) in experiment [6]. In addition, the GI50 in experiment [7], in experiment [9], in experiment [11], in experiment [12], in experiment [13] and in experiment [14] was > 100 µM (inactive) each time. Also, the GI50 in experiment [15], in [16], in [17], in experiment [18] and in experiment [19] was > 100 µM (inactive) in each case.

As to `Cc1cc(NS(=O)(=O)c2ccc(Nc3c4ccccc4nc4c(C(=O)NCCO)cccc34)cc2)no1`, the GI50 was 7.41 µM (inactive) in experiment [1]; 24.9 µM in experiment [2]; 30.2 µM (inactive) in [3]; 32.9 µM (inactive) in experiment [4]; 32.7 µM (inactive) in experiment [5]; 37.9 µM (inactive) in [6]. For the same compound, the GI50 was 24.7 µM (inactive) in experiment [7]; 35.6 µM (inactive) in [8]; 29 µM (inactive) in experiment [9]; 7.19 µM (inactive) in [10]; 40.7 µM (inactive) in experiment [20]; 26.3 µM (inactive) in experiment [11]. Also, the GI50 in [13] was 29 µM (inactive); in experiment [14], 38.7 µM (inactive); in experiment [15], 30.1 µM (inactive); in experiment [16], 11.4 µM (inactive); in [17], 27.6 µM (inactive); in experiment [18], 25.1 µM (inactive). The GI50 in [19] is 37.4 µM (inactive).

Consider `C[C@@H](CO)C1=C(O)C(=O)c2c(ccc3c2CCCC3(C)C)C1=O`, for which the GI50 is 42.1 µM (inactive) in [1]; 29 µM in experiment [2]; 18.5 µM (inactive) in [3]; 29.2 µM (inactive) in experiment [4]; 54.8 µM (inactive) in [5]; < 0.01 µM (active) in experiment [6]. Besides, the GI50 in experiment [7] was 26.8 µM (inactive); in experiment [8] it was 61.9 µM (inactive); in experiment [9], 35.5 µM (inactive); in [10], 40 µM (inactive); in experiment [11] it was 30.3 µM (inactive); in experiment [12], 43.8 µM (inactive). Moreover, the GI50 in experiment [13] was 46.7 µM (inactive); in experiment [14], 30.4 µM (inactive); in experiment [15] it was 33 µM (inactive); in experiment [16], 15.5 µM (inactive); in experiment [17], 59.4 µM (inactive); in [18] it was 37.2 µM (inactive). In experiment [19], the GI50 is 25.7 µM (inactive).

Take `CO/C=C(/C(=O)OC)c1ccccc1[C@@H]1CC1c1cccc(F)c1` (stereo not given in full): the GI50 in [1] is 29.2 µM (inactive); in experiment [2] it was 23.4 µM; in experiment [3], 23.2 µM (inactive); in [4] it was 51.6 µM (inactive); in [5] it was 29.6 µM (inactive); in experiment [6] it was 18.4 µM (inactive). Besides, the GI50 was 19.3 µM (inactive) in experiment [7]; 25.5 µM (inactive) in experiment [8]; 30.4 µM (inactive) in experiment [9]; 25 µM (inactive) in [20]; 44.2 µM (inactive) in [11]; 58.3 µM (inactive) in experiment [12]. Further, the GI50 is 20.2 µM (inactive) in experiment [13]; 67 µM (inactive) in [14]; 25.6 µM (inactive) in [15]; 14.2 µM (inactive) in experiment [16]; 18.2 µM (inactive) in [18]; 53.3 µM (inactive) in experiment [19].

Turning to `O=C(O)CCCc1ccc2ccc3ccccc3c2c1`, the GI50 in experiment [1] is 65.5 µM (inactive); in experiment [2] it was 51.1 µM; in [3] it was 46.2 µM (inactive); in [4], 34.8 µM (inactive); in experiment [5] it was > 100 µM (inactive); in [7], > 100 µM (inactive). In addition, the GI50 in experiment [9] is 83.9 µM (inactive); in experiment [10], 14 µM (inactive); in experiment [11], 42.5 µM (inactive); in [12], 15.3 µM (inactive); in [13], > 100 µM (inactive); in [14] it was 21.8 µM (inactive). The GI50 was 73.5 µM (inactive) in [15]; 39.6 µM (inactive) in [16]; 96.4 µM (inactive) in [17]; > 100 µM (inactive) in [18]; > 100 µM (inactive) in [19].

The values are drawn from ChEMBL document CHEMBL1201862, “PubChem BioAssay data set” (2004).
